SMILES strings stand for the structures.

From patent US9175003B2, “Substituted azoanthracene derivatives and intermediates for preparation thereof” (TransTech Pharma, LLC, priority 2009, dated 2015) come the findings set out here.

For the test, the target named is human GLP-1 receptor (Homo sapiens (Human), UniProt P43220). The settings on record: read-out: Mean EC50; cAMP, HTRF detection, 30 min at 37° C., HEK-293 cells expressing cloned human GLP-1 receptor. Background: Time-resolved FRET reads energy transfer from a long-lived donor to a nearby acceptor.
Chain of human GLP-1 receptor (P43220 24-463): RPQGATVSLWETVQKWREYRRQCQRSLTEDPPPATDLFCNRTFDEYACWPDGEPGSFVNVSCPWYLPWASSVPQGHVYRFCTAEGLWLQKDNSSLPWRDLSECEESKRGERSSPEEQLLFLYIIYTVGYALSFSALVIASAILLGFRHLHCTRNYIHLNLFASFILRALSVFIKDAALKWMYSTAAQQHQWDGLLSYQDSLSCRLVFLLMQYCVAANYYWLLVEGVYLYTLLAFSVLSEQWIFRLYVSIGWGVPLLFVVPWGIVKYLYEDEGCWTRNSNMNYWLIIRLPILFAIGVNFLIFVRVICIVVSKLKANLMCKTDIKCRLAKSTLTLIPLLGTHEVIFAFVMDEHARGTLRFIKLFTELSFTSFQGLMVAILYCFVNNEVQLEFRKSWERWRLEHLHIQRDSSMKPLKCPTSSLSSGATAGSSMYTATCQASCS

A word on the EC50: it is the concentration needed to bring the measured effect to its halfway point. With `Cc1nccc(-c2ccc(C[C@H](NC(=O)[C@@H]3Cc4cc5c(cc4CN3C(=O)NC3(C)CCCCC3)O[C@@H](c3ccc(OCc4ccc(Cl)c(Cl)c4)cc3)CO5)C(=O)O)cc2)c1C` [Example 438, (S)-2-{[(3S,8S)-3-[4-(3,4-Dichloro-benzyloxy)-phenyl]-7-(1-methyl-cyclohexylcarbamoyl)-2,3,6,7,8,9-hexahydro-[1,4]dioxino[2,3-g]isoquinoline-8-carbonyl]-amino}-3-[4-(2,3-dimethyl-pyridin-4-yl)phenyl]-propionic acid], the 50% effective concentration (EC50) amounted to 37 nM. Next, `Cc1nc(C(=O)N2Cc3cc4c(cc3C[C@H]2C(=O)N[C@@H](Cc2ccc(-c3ccc(F)cc3)cc2)C(=O)O)OC[C@H](c2ccc(OCc3ccc(Cl)c(Cl)c3)cc2)O4)c(C)o1` [Example 440, (S)-2-{[(3S,8S)-3-[4-(3,4-Dichloro-benzyloxy)-phenyl]-7-(2,5-dimethyl-oxazole-4-carbonyl)-2,3,6,7,8,9-hexahydro-[1,4]dioxino[2,3-g]isoquinoline-8-carbonyl]-amino}-3-(4′-fluoro-biphenyl-4-yl)-propionic acid]: 387 nM.

As for `Cc1nccc(-c2ccc(C[C@H](NC(=O)[C@@H]3Cc4cc5c(cc4CN3C(=O)c3ccccc3)O[C@@H](c3ccc(OCC4CCCCC4)cc3)CO5)C(=O)O)cc2)c1C` [Example 442, (S)-2-{[(3S,8S)-7-Benzoyl-3-(4-cyclohexylmethoxy-phenyl)-2,3,6,7,8,9-hexahydro-[1,4]dioxino[2,3-g]isoquinoline-8-carbonyl]-amino}-3-[4-(2,3-dimethyl-pyridin-4-yl)-phenyl]-propionic acid], the EC50 is 208 nM.
